The values below come from patent US12440475B2, “Hodgkin lymphoma therapy” (priority 2016, dated 2025).

Series [1] has as its system Hodgkin lymphoma cell lines (KMH2, HDML2, L540, L1236 and L426). The series can be described thus: IC50 comparison of bendamustine, vorinostat and EDO-S101, five cell lines. The class given is cell-based, human. Conditions: Homo sapiens; range over all cell lines tested, including L1236-R. On the procedure:
(§1) • (a) Five Hodgkin lymphoma cell lines (KMH2, HDML2, L540, L1236 and L426) were cultured separately in the presence of bendamustine, vorinostat and EDO-S101 dissolved in DMSO at 37° C. L1236-derived Hodgkin lymphoma cell lines were selected as they have an acquired stable resistance to bendamustine (R100) or an ability to display continuous growth upon extended exposure to sub-lethal concentrations of bendamustine (R25, R50 and R75). A detailed description of the L1236-R Hodgkin lymphoma cell lines is disclosed in De Filippi et al, ASH 2015, Abstract. #2479. In these tests, the L1236-100R bendamustine resistant strain was used. […] Control cells were cultured in the same final concentration of DMSO. The number of viable cells was assessed at 24, 48 and 72 hours through a Countess™ automated cell counter (Invitrogen), each experiment being repeated three times and the results given being the mean of the three results±SD.

The subject of another series is L1236-R100. The series can be described thus: Viable cell count and IC50, bendamustine-resistant cell line. Type of series: cell-based, human. The conditions noted are these: Homo sapiens; R100 cell line. On the procedure: as §1
In series [2] the test system is relapsed-refractory Hodgkin lymphoma. The conditions noted are these: cited from earlier work.
The next series deals with R100. The series can be described thus: Combination with Brentuximab Vedotin, % survival, R100. Type of series: cell-based, human. The conditions noted are these: Brentuximab Vedotin 0.39 μg/ml (typically 10-fold lower than IC50) with EDO-S101 1.56 μM. On the procedure:
1.56 μM of EDO-S101 was administered to two Hodgkin lymphoma cell lines, the bendamustine naïve cell line L1236 and the bendamustine resistant cell line R100. In a second experiment, Brentuximab Vedotin was administered at a concentration of 3.12 μg/ml to the L1236 cell line and at a concentration of 0.39 μg/ml to the R100 cell line. Finally, in a third experiment EDO-S101 and Brentuximab Vedotin were administered in combination to each of the two cell lines at the same concentrations that they were administered in the monotherapy experiments.

pIC50: −log10 of the molar value.

Consider `Cn1c(CCCC(=O)O)nc2cc(N(CCCl)CCCl)ccc21` [bendamustine, reference compound], for which the pIC50 in series [1] was 4.77 to 4.96; in the series on L1236-R100 it was roughly 3.85. In series [2], the “patients resistant to bendamustine” value is “about 40%”.
As to Brentuximab Vedotin, the “cytotoxic effect in combination with EDO-S101” value in the series on R100 is “considerable cytotoxic effect”.

For orientation: pIC50 means the IC50 on a negative log10 scale, so that one unit is a factor of ten.
